pIC50: −log10 of the molar value.
Legend:
[1] = target: T1, HCV polymerase (NS5B570n-Con1) (Hepatitis C virus genotype 1b, UniProt Q9WMX2); assay: HCV NS5B RNA polymerase activity assay; assay type: biochemical, HCV Con1 strain
T1 construct: contains a 21 amino acid deletion at the C-terminus relative to the full-length HCV polymerase; 6-histidine (N); made in house; host or cells: E. coli BL21(DE) pLysS, plasmid pET17b
Experimental: The enzymatic activity of HCV polymerase (NS5B570n-Con1) was measured as the incorporation of radiolabeled nucleotide monophosphates into acid insoluble RNA products. Unincorporated radiolabeled substrate was removed by filtration and scintillant was added to the washed and dried filter plate containing radiolabeled RNA product. The amount of RNA product generated by NS5B570-Con1 at the end of the reaction was directly proportional to the amount of light emitted by the scintillant.
The N-terminal 6-histidine tagged HCV polymerase, derived from HCV Con1 strain, genotype 1b (NS5B570n-Con1) contains a 21 amino acid deletion at the C-terminus relative to the full-length HCV polymerase and was purified from E. coli strain BL21(DE) pLysS. The construct, containing the coding sequence of HCV NS5B Con1 (GenBank accession number AJ242654) was inserted into the plasmid construct pET17b, downstream of a T7 promoter expression cassette and transformed into E. coli. A single colony was grown overnight as a starter culture and later used inoculate 10 L of LB media supplemented with 100 μg/mL ampicillin at 37° C. Protein expression was induced by the addition of 0.25 mM isopropyl-β-D-thiogalactopyranoside (IPTG) when optical density at […] of the culture was between 0.6 and 0.8 and cells were harvested after 16 to 18 h at 30° C. NS5B570n-Con1 was purified to homogeneity using a three-step protocol including subsequent column chromatography on Ni-NTA, SP-Sepharose HP and Superdex 75 resins.
Each 50 μl enzymatic reaction contained 20 nM RNA template derived from the complementary sequence of the Internal Ribosome Entry Site (cIRES), 20 nM NS5B570n-Con1 enzyme, 0.5 μCi of tritiated UTP (Perkin Elmer catalog no. TRK-412; specific activity: 30 to 60 Ci/mmol; stock solution concentration from 7.5×10^-5 M to 20.6×10^-6 M), 1 μM each ATP, CTP, and GTP, 40 mM Tris-HCl pH 8.0, 40 mM NaCl, 4 mM DTT (dithiothreitol), 4 mM MgCl2, and 5 μl of compound serial diluted in DMSO. Reaction mixtures were assembled in 96-well filter plates (cat #MADVN0B, Millipore Co.) and incubated for 2 h at 30° C. Reactions were stopped by addition of 10% final (v/v) trichloroacetic acid and incubated for 40 min at 4° C. Reactions were filtered, washed with 8 reaction volumes of 10% (v/v) trichloroacetic acetic acid, 4 reaction volumes of 70% (v/v) ethanol, air dried, and 25 μl of scintillant (Microscint 20, Perkin-Elmer) was added to each reaction well.
The amount of light emitted from the scintillant was converted to counts per minute (CPM) on a Topcount® plate reader (Perkin-Elmer, Energy Range: Low, Efficiency Mode: Normal, Count Time: 1 min, Background Subtract: none, Cross talk reduction: Off).
Data was analyzed in Excel® (Microsoft®) and ActivityBase® (Idbs®). The reaction in the absence of enzyme was used to determine the background signal, which was subtracted from the enzymatic reactions. Positive control reactions were performed in the absence of compound, from which the background corrected activity was set as 100% polymerase activity. All data was expressed as a percentage of the positive control. The compound concentration at which the enzyme-catalyzed rate of RNA synthesis was reduced by 50% (IC50) was calculated by fitting
[formula] equation (i) to the data. where “Y” corresponds to the relative enzyme activity (in %), “% Min” is the residual relative activity at saturating compound concentration, “% Max” is the relative maximum enzymatic activity, “X” corresponds to the compound concentration, and “S” is the Hill coefficient (or slope).

| SMILES | melting point [°C] | pIC50 [1] |
| --- | --- | --- |
| COc1cc(CN(C)C(=O)c2cccc(NS(C)(=O)=O)c2)c(-c2ccc[nH]c2=O)cc1C(C)(C)C [Compound I-65, N-[4-tert-Butyl-5-methoxy-2-(2-oxo-1,2-dihydro-pyridin-3-yl)-benzyl]-3-methanesulfonylamino-N-methyl-benzamide] | 170 to 172 | 7.89 |
| COCCN(C)C(=O)c1cc(OC)c(C(C)(C)C)cc1-c1ccc[nH]c1=O [Compound I-47] | 160 to 162 | 5.82 |
| CC(C)(C)c1ccc(NS(C)(=O)=O)c(-c2ccc[nH]c2=O)c1 [Compound I-6, N-[4-tert-Butyl-2-(2-oxo-1,2-dihydro-pyridin-3-yl)-phenyl]-methane sulfonamide] | 219.3 to 233.8 | 5.41 |
| COc1cc(CN(CCO)S(C)(=O)=O)c(-c2ccc[nH]c2=O)cc1C(C)(C)C [Compound I-35, N-[4-tert-butyl-5-methoxy-2-(2-oxo-1,2-dihydro-pyridin-3-yl)-benzyl]-N-(2-hydroxy-ethyl)-methanesulfonamide] | 234.7 to 236 | 7.59 |
| COc1cc(CN2C(=O)c3ccccc3C2=O)c(-c2ccc[nH]c2=O)cc1C(C)(C)C [Compound I-33, 2-[4-tert-Butyl-5-methoxy-2-(2-oxo-1,2-dihydro-pyridin-3-yl)-benzyl]-isoindole-1,3-dione] | 277 to 280 | 7.46 |
| COc1cc(CN(CCOC(C)=O)S(C)(=O)=O)c(-c2ccc[nH]c2=O)cc1C(C)(C)C [Compound I-30, 2-{[4-tert-Butyl-5-methoxy-2-(2-oxo-1,2-dihydro-pyridin-3-yl)-benzyl]-methanesulfonyl-amino}-ethyl acetate] | 207 to 208 | 7.46 |
| COc1cc(C(=O)N(C)C)c(-c2ccc[nH]c2=O)cc1C(C)(C)C [Compound I-41] | 208 to 210 | 5.77 |
| COc1cc(CCNS(C)(=O)=O)c(-c2ccc[nH]c2=O)cc1C(C)(C)C [Compound I-17, N-{2-[4-tert-butyl-5-methoxy-2-(2-oxo-1,2-dihydro-pyridin-3-yl)-phenyl]-ethyl}-methanesulfonamide] | 219.3 to 222.4 | 6.55 |
| COc1cc(C(=O)N2CCN(C(C)=O)CC2)c(-c2ccc[nH]c2=O)cc1C(C)(C)C [Compound I-46] | 206 to 208 | 6.21 |
| COc1cc(CCO)c(-c2ccc[nH]c2=O)cc1C(C)(C)C [Compound I-5, 3-[5-tert-Butyl-2-(2-hydroxy-ethyl)-4-methoxy-phenyl]-1H-pyridin-2-one] | 231.8 to 233.7 | 5.80 |
| COc1cc(C(C)NS(C)(=O)=O)c(-c2ccc[nH]c2=O)cc1C(C)(C)C (stereo not drawn) [Compound I-52, N-{1-[4-tert-butyl-5-methoxy-2-(2-oxo-1,2-dihydro-pyridin-3-yl)-phenyl]-ethyl}-methanesulfonamide] | 284 to 286 | 6.18 |
| COc1cc(Cn2c(=O)n(C)c3ccccc32)c(-c2ccc[nH]c2=O)cc1C(C)(C)C [Compound I-69, 1-[4-tert-Butyl-5-methoxy-2-(2-oxo-1,2-dihydro-pyridin-3-yl)-benzyl]-3-methyl-1,3-dihydro-benzoimidazol-2-one] | 140 to 142 | 7.47 |
| COc1cc(CNC(=O)c2ccc(NS(C)(=O)=O)cc2)c(-c2ccc[nH]c2=O)cc1C(C)(C)C [Compound I-43, N-[4-tert-butyl-5-methoxy-2-(2-oxo-1,2-dihydro-pyridin-3-yl)-benzyl]-4-methanesulfonylamino-benzamide] | 175 to 180 | 7.30 |
| COc1cc(CNS(=O)(=O)Cc2ccccc2)c(-c2ccc[nH]c2=O)cc1C(C)(C)C [Compound I-20] | 249 to 250 | 6.68 |
| COc1cc(CN2C(=O)CC[C@H]2CO)c(-c2ccc[nH]c2=O)cc1C(C)(C)C [Compound I-72, 3-[5-tert-Butyl-2-((S)-2-hydroxymethyl-5-oxo-pyrrolidin-1-ylmethyl)-4-methoxy-phenyl]-1H-pyridin-2-one] | 146 to 148 | 7.11 |
| COc1cc(CN(CC2CCN(C(C)=O)C2)S(C)(=O)=O)c(-c2ccc[nH]c2=O)cc1C(C)(C)C (stereo not drawn) [Compound I-48, N-(1-acetyl-pyrrolidin-3-ylmethyl)-N-[4-tert-butyl-5-methoxy-2-(2-oxo-1,2-dihydro-pyridin-3-yl)-benzyl]-methanesulfonamide] | 196 to 198 | 7.08 |
| COc1cc(CN(C)S(C)(=O)=O)c(-c2ccc[nH]c2=O)cc1C(C)(C)C [Compound I-86] | 230 to 231 | 7.28 |
| COc1cc(CNS(=O)(=O)c2ccccc2Cl)c(-c2ccc[nH]c2=O)cc1C(C)(C)C [Compound I-87] | 231 to 232 | 6.45 |
| COc1cc(CN2CCN(C(=O)OC(C)(C)C)S2(=O)=O)c(-c2ccc[nH]c2=O)cc1C(C)(C)C [Compound I-61] | 125 to 127 | 6.50 |
| COc1cc(CNS(C)(=O)=O)c(-c2ccc(C)[nH]c2=O)cc1C(C)(C)C [Compound I-37, N-[4-tert-Butyl-5-methoxy-2-(6-methyl-2-oxo-1,2-dihydro-pyridin-3-yl)-benzyl]-methanesulfonamide] | 120 to 125 | 6.84 |
| COc1cc(CN(CC2CCNC2)S(C)(=O)=O)c(-c2ccc[nH]c2=O)cc1C(C)(C)C (stereo not drawn) [Compound I-31, N-[4-tert-Butyl-5-methoxy-2-(2-oxo-1,2-dihydro-pyridin-3-yl)-benzyl]-N-pyrrolidin-3-ylmethyl-methanesulfonamide] | 158 to 160 | 7.01 |
| COc1cc(C(=O)N2CCC(CO)C2)c(-c2ccc[nH]c2=O)cc1C(C)(C)C (stereo not drawn) [Compound I-73] | 201 to 203 | 5.79 |
| CCOC(=O)[C@H]1CCC(=O)N1Cc1cc(OC)c(C(C)(C)C)cc1-c1ccc[nH]c1=O [Compound I-70, (R)-1-[4-tert-Butyl-5-methoxy-2-(2-oxo-1,2-dihydro-pyridin-3-yl)-benzyl]-5-oxo-pyrrolidine-2-carboxylic acid ethyl ester] | 92 to 95 | 7.15 |
| COCCN1CCN(C(=O)c2cc(OC)c(C(C)(C)C)cc2-c2ccc[nH]c2=O)CC1 [Compound I-67] | 179 to 181 | 5.43 |
| COc1cc(C(=O)N(C)CC#N)c(-c2ccc[nH]c2=O)cc1C(C)(C)C [Compound I-66] | 211 to 212 | 6.82 |
| COc1cc(CN2C(=O)CC(C)(C)CC2=O)c(-c2ccc[nH]c2=O)cc1C(C)(C)C [Compound I-88] | > 300 | 7.28 |
| COc1cc(CNS(=O)(=O)C(C)C)c(-c2ccc[nH]c2=O)cc1C(C)(C)C [Compound I-25] | 118 to 120 | 6.74 |
| COc1cc(CN(C(C)C)S(C)(=O)=O)c(-c2ccc[nH]c2=O)cc1C(C)(C)C [Compound I-28] | 285 to 286 | 7.48 |
| CCOC(=O)c1cc(OC)c(C(C)(C)C)cc1-c1ccc[nH]c1=O [Compound I-54, 4-tert-Butyl-5-methoxy-2-(2-oxo-1,2-dihydro-pyridin-3-yl)-benzoic acid ethyl ester] | 214 to 215 | 7.41 |
| COc1cc(CO)c(-c2ccc[nH]c2=O)cc1C(C)(C)C [Compound I-2, 3-(5-tert-Butyl-2-hydroxymethyl-4-methoxy-phenyl)-1H-pyridin-2-one] | 215 to 216 | 6.00 |
